The results in this text go back to patent US7749729B2, “Methods for assessing the risk for development of cardiovascular disease” (University of Washington, priority 2004, dated 2010).

The test system of assay [1] is ABCA1-transfected BHK cells. The assay can be described thus: Cholesterol efflux from [3H]cholesterol-labeled ABCA1-transfected BHK cells. Particulars: for effect of oxidation of the acceptor on cholesterol efflux, compared with native acceptor: ABCA1-transfected BHK cells, acceptor oxidized with HOCl or H2O2. Type of assay: cell-based, hamster. As to the method:
(§1) FIG. 11 describes cholesterol efflux activities of native and HOCl-oxidized HDL, apo A-I, and peptide 18A. [^3H]Cholesterol-labeled mock-(A, C) or ABCA1-transfected (A-C) BHK cells were incubated for 4 h with native (Ctrl), H2O2-oxidized, or HOCl-oxidized HDL (20 µg/mL) or apo A-I (5 µg/mL) (A), for 2 h with 5 µg/mL apo A-I oxidized with the indicated mole ratio of HOCl (B), or for 2 h with control (−) or HOCl-oxidized (+) peptide Ac-18A-NH2 (20 µg/mL) (C). At the end of the incubation, [^3H]cholesterol efflux to the acceptor particle was measured. *P<0.01 compared with controls.
(§2) Cell Culture and Cholesterol Efflux. Baby hamster kidney (BHK) cells expressing mifepristone-inducible human ABCA1 were generated as previously described (35). Cellular cholesterol was labeled by adding 1 μCi/mL [^31H]cholesterol (NEN Life Science Products) to the growth medium. Twenty four hours later, strong expression of ABCA1 was induced by incubating the cells for 20 h with DMEM containing 1 mg/mL bovine serum albumin (DMEM/BSA) and 1 nM mifepristone (Vaughan et al., 2003. J Lipid Res 44:1373-1380). To measure cholesterol efflux, mock- or ABCA1-transfected cells were incubated with DMEM/BSA without or with HDL, apo A-I, or peptide. After 2 to 4 h, the medium and cells were assayed for [^3H]cholesterol as described (Id.). Cholesterol efflux mediated by HDL, apo A-I, or peptide was calculated as the percentage of total [^31H]cholesterol (medium plus cell) released into the medium after subtracting the value obtained with DMEM/BSA alone.
We exposed HDL or purified apo A-I to HOCl or H2O2 (80:1 or 25:1, mol/mol, oxidant:HDL particle or oxidant:apo A-I) in a physiological buffer (138 mM NaCl, 2.7 mM KCl, 10 mM sodium phosphate) at neutral pH for 120 min at 37° C., terminating the reaction with a 20-fold molar excess (relative to oxidant) of methionine. […]

The target of the next assay is T1, myeloperoxidase (Homo sapiens, UniProt P05164).
T1 construct: from tissue; host or cells: human neutrophils
The assay can be described thus: Nitration of HDL by the myeloperoxidase-H2O2-NO2- system (3-nitrotyrosine formation, absorbance at 430 nm). Type of assay: biochemical. Particulars: 250 μM H2O2, 500 μM NO2-. As to the method: FIG. 1 describes nitration of HDL by the myeloperoxidase-H2O2-nitrite system. (A,C) HDL (1 mg/ml protein) was incubated for 60 min or the indicated time at 37° C. in phosphate buffer (20 mM sodium phosphate, pH 7.4, 100 μM DTPA) supplemented with 50 nM myeloperoxidase, 250 μM H2O2 and 500 μM NO2^−. Where indicated, the concentrations of (B) NO2^− were varied. 3-Nitrotyrosine formation was monitored spectroscopically following alkalinization of the reaction mixture.
FIG. 2 describes the effect of Cl^− or taurine on HDL nitration by the myeloperoxidase-H2O2—NO2^− system or HOCl—NO2^−. HDL was exposed for 60 min at 37° C. to myeloperoxidase in phosphate buffer supplemented with 250 μM H2O2, 500 μM NO2^− and (A) the indicated concentration of Cl^− or (B) the indicated concentration of taurine and 100 mM Cl^−. […]
HDL oxidation in vitro. […] Concentrations of HOCl and H2O2 were determined spectrophotometrically (ε292=350 M^−1 cm^−1 ε240=39.4 M^−1 cm^−1) (48,49). 3-Nitrotyrosine formation in a 300 μL aliquot of the reaction mixture was determined in a microplate reader by monitoring absorbance at 430 nm following the addition of NaOH to adjust the pH>9.
Myeloperoxidase generates 3-nitrotyrosine in HDL protein under physiologically relevant in vitro conditions. […] We monitored the formation of 3-nitrotyrosine spectroscopically by quantifying absorbance of the alkalinized reaction mixture at 430 nm.

For assay [2], the system named is mock-transfected BHK cells (low ABCA1). The assay can be described thus: Cholesterol efflux from [3H]cholesterol-labeled mock-transfected BHK cells. Particulars: 2 to 4 h incubation. It is filed as cell-based, hamster. On the procedure: as §1
as §2, with “To measure cholesterol efflux, mock- or ABCA1-transfected cells were incubated with DMEM/BSA without or with HDL, apo A-I, or peptide. After 2 to 4 h, the medium and cells were assayed for [^3H]cholesterol as described (Id.).” left out, “alone. […]” for “alone.”

T1 sequence (P05164 279-745 limits assumed): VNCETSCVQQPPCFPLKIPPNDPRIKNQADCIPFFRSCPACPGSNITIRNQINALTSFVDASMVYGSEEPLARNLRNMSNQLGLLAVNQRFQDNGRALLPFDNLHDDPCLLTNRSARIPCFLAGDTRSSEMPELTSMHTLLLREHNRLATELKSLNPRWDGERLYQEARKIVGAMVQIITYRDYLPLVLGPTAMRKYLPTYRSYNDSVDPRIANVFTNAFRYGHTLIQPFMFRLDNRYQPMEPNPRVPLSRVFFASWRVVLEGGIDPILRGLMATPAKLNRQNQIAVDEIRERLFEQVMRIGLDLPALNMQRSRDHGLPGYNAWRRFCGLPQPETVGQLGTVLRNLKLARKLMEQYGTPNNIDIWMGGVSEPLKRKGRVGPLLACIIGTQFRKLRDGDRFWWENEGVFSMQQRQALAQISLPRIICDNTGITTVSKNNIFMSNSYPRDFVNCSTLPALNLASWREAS
T1 sequence (P05164 165-273 limits assumed): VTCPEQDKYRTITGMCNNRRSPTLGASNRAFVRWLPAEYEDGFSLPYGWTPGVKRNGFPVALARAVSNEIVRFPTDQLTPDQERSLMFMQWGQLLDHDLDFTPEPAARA

With “HOCl-oxidized apo A-I: purified apo A-I exposed to HOCl (25:1 mol/mol oxidant:apo A-I)”, the “effect of oxidation of the acceptor on cholesterol efflux, compared with native acceptor” value in assay [1] is given as “significant decrease”.
catalase: the “effect on HDL nitration (3-nitrotyrosine formation)” value on myeloperoxidase (1 mg/ml HDL, 50 nM myeloperoxidase, pH 7.4, 37° C., catalase 200 nM, sodium azide 10 mM) is “inhibited”.
Take “apo A-I: purified apolipoprotein A-I, HDL's major protein”: the “cholesterol efflux to the acceptor” value is given as “became active” in assay [1] (ABCA1-transfected BHK cells (ABCA1 overexpressed), 2 to 4 h incubation) and “essentially no cholesterol efflux activity” in assay [2].
Consider Acetyl-18A-NH2, for which, in assay [2], the “cholesterol efflux to the acceptor” value was “promoted cholesterol efflux”.
As to “H2O2-oxidized apo A-I: purified apo A-I exposed to H2O2 (25:1 mol/mol oxidant:apo A-I)”, the “effect of oxidation of the acceptor on cholesterol efflux, compared with native acceptor” value in assay [1] was “no effect”.
Take `NCCS(=O)(=O)O` [Taurine, 2-aminoethanesulfonic acid]: the “effect on HDL nitration (3-nitrotyrosine formation) in the presence of Cl-” value at myeloperoxidase (myeloperoxidase, 100 mM Cl-, 60 min, 37° C.) was “no effect”.
